# Structures can show the parent of a compound that is named as a salt.
# What was measured:
# [1] = system: coronary arteries (Langendorff's isolated heart); assay: Langendorff's isolated heart preparation (dilation of coronary arteries)
# Procedure: In addition to their utility in the treatment of hypertension, the compounds of formula (I) are useful in the treatment of the symptoms of angina pectoris by virtue of their ability to dilate coronary arteries. Their activity was measured using the "Langendorff's isolated heart" preparation. This test has been described in "Pharmacological Experiments on Isolated Preparations". Staff of the Department of Pharmacology, University of Edinbourgh, 2nd Ed., Churchill Livingstone, N.Y., 1970, pp. 112-119. The test compounds were administered at concentrations of 30.0, 10.0, 3.0, 1.0, 0.3, 0.1, 0.03, and 0.01 micromolar (10^-6 molar).
# [2] = system: spontaneously hypertensive rats; assay: Spontaneously Hypertensive Rat (SHR) test, arterial pressure; format: in vivo, adult spontaneously hypertensive rats (Charles Rivers); conditions: SH rats, fall of mean arterial pressure
# Procedure: The activity of compounds of formula (I) for the treatment of hypertension was determined using the Spontaneously Hypertensive Rat (SHR) test as described below. In this test, the arterial pressure of adult spontaneously hypertensive rats (Charles Rivers) is monitored directly via an aortic cannula. The SH rats are anesthetized with an inhalation anesthetic (ether). The left carotid artery is isolated and cannulated. The tip of the cannula is advanced to the aorta and the cannula is exteriorized behind the neck at the level of the scapula. Animals are placed in individual cages and allowed to recover from the anesthetic and are kept unrestrained. The arterial cannula is connected to the pressure transducer which is attached to the recorder. The test compounds are administered to at least 3 rats at doses selected in the range of 0.1 to 100 mg/kg of body weight by intraperitoneal (i.p.) or oral (p.o.) routes of administration. The arterial pressure and heart rate are monitored for a minimum of 24 hr. A test compound is considered to be active as an antihypertensive agent if the mean arterial pressure (MAP) indicates a fall of >15 mm of Hg. Each animal serves as its own control.
# Mongrel dogs = assay: Myocardial Oxygen Supply and Demand (dog) Test; format: in vivo; conditions: i.v., anesthetized dog; for increasing coronary blood flow: p<0.05
# Procedure: The activity of compounds of formula (I) in the treatment of angina was also determined using the Myocardial Oxygen Supply and Demand (dog) Test as described below.
# Mongrel dogs of either sex weighing between 8.4 and 12.3 kg were used for this study. These dogs were obtained from Haycock Farm, Quakertown, PA. They were anesthetized with pentabarbitol Na and ventilated with a Harvard positive pressure respirator (Model 607 , Dover, MA) to maintain their blood pH and gaseous tension within physiological ranges. Heparin-filled polyethylene catheters were implanted into the right femoral artery (PE-260) and the right atrium (PE-180) for the measurement of their respective pressures. The right femoral vein was cannulated with a heparin-filled polyethylene catheter (PE-200) for drug infusion. A thoracotomy was then performed via the left fifth intercostal space. The left circumflex coronary artery was isolated from surrounding fascia and an electromagnetic flow transducer (I.D.=2.0 mm, Gould Statham Inc. Oxnard, CA) placed around it for the measurement of coronary blood flow. A Delmed intravenous catheter (18.5 ga.×8 in., Canton, MA) was inserted into the coronary sinus via a puncture wound made by an 18 ga. needle for coronary venous effluent blood sampling. Arterial oxygen samples were taken from the femoral arterial catheters. Total content of oxygen in whole blood was measured by the Lex-02-Con-TL (Lexington Instruments Corp., Waltham, MA). Myocardial oxygen consumption was estimated by the product of the difference in arterial and coronary sinus oxygen content and coronary blood flow through the left circumflex coronary artery. These techniques have been used extensively to study the effects of calcium channel blockers on myocardial oxygen supply and demand in various animal models. References for these techniques include Jolly, S. R. and Gross, G. J. Effect of FR 7534, A New Calcium Antagonist, On Myocardial Oxygen Demand. Euro. J. Pharm. 54: 289-293, (1979); Ono, H., Ohara, N. and Hashimoto, K. Effect of an Anti-Anginal Drug, Perhexiline, on Myocardial Oxygen Consumption in Anesthetized Open-Chest Dogs Compared With Verapamil and Glyceryl Trinitrate. Jap. Cir. J. 46: 559-567 (1982); and Vater, W. and Schlossman, K. Effects of Nifedipine on the Hemodynamics and Oxygen Consumption of the Heart in Animal Experiments, in: Jatene and Lichtlen, 3rd International Adalat Symposium: New Therapy of Ischemic Heart Disease (Exerpta Medica, Amsterdam, Oxford), p. 33, (1975). Arterial blood pH and gaseous tension were measured by a Corning pH/blood gas analyzer (Model 168, Medfield, MA). Arterial and atrial pressures were measured by connecting their respective catheters to Statham strain-gauge manometers (P23D, Gould Inc., Oxnard, CA). Gould-Statham electromagnetic blood flowmeters (Model SP2202, Oxnard, CA) were used to measure coronary blood flow. Lead II of the EKG was monitored continuously through subcutaneous insertion of stainless steel needle electrodes on the body surface of the animal. The EKG was recorded by a Grass oscillograph (Model 7D, Quincy, MA) with an EKG-pulse pre-amplifier (Model 7P6C) and a Polygraph D.C. driver amplifier (Model 7DAG). All the other recorded variables, i.e., arterial pressure, right atrial pressure and coronary blood flow were recorded by the Grass oscillograph. Coronary vascular resistance was calculated as the quotient of the difference in mean pressure (arterial-right atrial) and left circumflex blood flow. […]
Compound,EC30 [1] [nM],"SHR δMAP ([2]; dose 30 (mg/kg), po)","SHR δMAP ([2]; dose 10 (mg/kg), ip)",also measured
"CC(C)(C)COCC(CN(Cc1ccncc1)c1c(Cl)cccc1Cl)N1CCCC1.Cl.Cl (stereo not drawn) [Example 7, N-(2,6-Dichlorophenyl)-beta-[(2,2-dimethylpropoxy)methyl]-N-(4-pyridinylmethyl)-1-pyrrolidineethanamine Dihydrochloride]",28,-37 mm of Hg,,
"CN(C)c1ccc(CN(CC(COCC(C)(C)C)N2CCCC2)c2c(Cl)cccc2Cl)cc1 (stereo not drawn) [Example 4c, N-(2,6-Dichlorophenyl)-N-[[4-(dimethylamino)phenyl]methyl]beta-[(2,2-dimethylpropoxy)methyl]-1-pyrrolidineethanamine Hydrochloride Hydrate (7:7:1)]",1.6,-14 mm of Hg,-23 mm of Hg,
"CC(C)(C)COCC(CN(Cc1ccccc1)c1ccccc1Cl)N1CCCC1.Cl (stereo not drawn) [Example 3b, N-(2-Chlorophenyl)-beta-[(2,2-dimethylpropoxy)methyl]-N-(phenylmethyl)-1-pyrrolidineethanamine Hydrochloride (1:1)]",27,-6 mm of Hg,-52 mm of Hg,
"CC(C)(C)COCC(CN(Cc1ccccc1)c1c(Cl)cccc1Cl)N1CCCC1 (stereo not drawn) [Example 6, N-(2,6-Dichlorophenyl)-beta-[(2,2-dimethylpropoxy)methyl]-N-(phenylmethyl)-1-pyrrolidineethanamine Hydrochloride (1:1)]",7.3,-33 mm of Hg,,
"COc1ccc(CN(CC(COCC(C)(C)C)N2CCCC2)c2c(Cl)cccc2Cl)cc1OC.Cl (stereo not drawn) [Example 5, N-(2,6-Dichlorophenyl)-N-[(3,4-dimethoxyphenyl)methyl]-beta-[(2,2-dimethylpropoxy)methyl]-1-pyrrolidineethanamine-Hydrochloride (1:1)]",1,-15 mm of Hg,,
"CC(C)(C)COCC(CN(Cc1ccccc1)c1ccccc1)N1CCCC1 (stereo not drawn) [Example 10, β-[(2,2-Dimethylpropoxy)methyl]-N-phenyl-N-(phenylmethyl)-1-pyrrolidineethanamine (E)-2-Butenedioate (1:1)]",5,-13 mm of Hg,-28 mm of Hg,
"CC(C)(C)COCC(CN(CC1CCCCC1)c1c(Cl)cccc1Cl)N1CCCC1 (stereo not drawn) [Example 12, N-(Cyclohexylmethyl)-N-(2,6-dichlorophenyl)-beta-[(2,2-dimethylpropoxy)methyl]-1-pyrrolidineethanamine (E)-2-Butenedioate Hydrate (20:25:2)]",3,-25 mm of Hg,,
"CC(C)(C)OCC(CN(Cc1ccccc1)c1c(Cl)cccc1Cl)N1CCCC1 (stereo not drawn) [Example 13, N-(2,6-Dichlorophenyl)-beta[ (1,1-dimethylethoxy)methyl]-N-(phenylmethyl)-1-pyrrolidineethanamine Hydrochloride (1:1)]",4.3,-20 mm of Hg,-74 mm of Hg,
"CC1(COCC(CN(Cc2ccccc2)c2c(Cl)cccc2Cl)N2CCCC2)CCCCC1.Cl (stereo not drawn) [Example 1e, N-(2,6-Dichlorophenyl)-beta-[[(1-methylcyclohexyl)methoxy]methyl]-N-(phenylmethyl)-1-pyrrolidineethanamine hydrochloride(1:1)]",4.6,-60 mm of Hg,,decreased arterial pressure (Mongrel dogs; 0.25 mg/kg): 8%; increasing coronary blood flow (Mongrel dogs; 0.25 mg/kg): 80%; decreased arterial pressure (Mongrel dogs; 0.50 mg/kg): 15%; increasing coronary blood flow (Mongrel dogs; 0.50 mg/kg): 221%; myocardial oxygen supply/demand ratio (Mongrel dogs; 0.25 and 0.50 mg/kg): markedly increased
"Cc1cccc(C)c1N(Cc1ccccc1)CC(COCC(C)(C)C)N1CCCC1.Cl (stereo not drawn) [Example 8b, N-(2,6-Dimethylphenyl)-beta-[(2,2-dimethylpropoxy)methyl]-N-(phenylmethyl)-1-pyrrolidineethanamine Hydrochloride]",2.8,-21 mm of Hg,,
"CC(C)(C)COCC(CN(Cc1ccccc1)c1cccc(C(F)(F)F)c1)N1CCCC1.Cl (stereo not drawn) [Example 9b, beta-[(2,2-Dimethylpropoxy)methyl]-N-(phenylmethyl)-N-[3-(trifluoromethyl)phenyl]-1-pyrrolidineethanamine Hydrochloride]",20,-28 mm of Hg,,
"COc1cccc(N(Cc2ccccc2)CC(COCC(C)(C)C)N2CCCC2)c1.O=C(O)/C=C/C(=O)O (stereo not drawn) [Example 2d, beta-[(2,2-Dimethylpropoxy)methyl]-N-(3-methoxyphenyl)-N-(phenylmethyl)-1-pyrrolidineethanamine (E)-2-Butenedioate (1:1)]",29,-29 mm of Hg,,
"N-(2,6-Dichlorophenyl)-N-(phenylmethyl)-alpha-[[(tricyclo-[3.3.1.1^3,7]dec-1-yl)methoxy]methyl]-1-pyrrolidineethanamine Hydrochloride (1:1) [Example 11c]",,-41 mm of Hg,,Langendorff EC30 [1]: .010 10^-6 M
